In ChEMBL document CHEMBL1151635, “Antineoplastic agents, 105. Zephyranthes grandiflora” (1984):

Key:
Format in all cases: functional
P388 [1] = test: In vivo cytotoxicity against mouse P388 cells at 12.5 mg/kg relative to control
P388 [2] = test: In vivo cytotoxicity against mouse P388 cells at 0.75 to 6 mg/kg relative to control; conditions: dose mg/kg 0.75-6
P388 [3] = test: Cytotoxicity against mouse P388 cells; conditions: read-out: ED50 (the source's name)
P388 [4] = test: In vivo cytotoxicity against mouse P388 cells at 0.78 to 3.1 mg/kg relative to control; conditions: dose mg/kg 0.78-3.1

Question: How did the T/C (P388 [1]) turn out when O=C1N[C@H]2[C@H](O)[C@H](O)[C@@H](O)[C@H](O)[C@@H]2c2cc3c(c(O)c21)OCO3 [PANCRATISTATIN] was run?
Answer: 206%

Question: And the T/C (P388 [2])?
Answer: 138%

Question: What about the EC50 (P388 [3]) of the same compound?
Answer: < 0.01 µg/mL

Question: What about the T/C (P388 [4]) of the same compound?
Answer: 135%
